Experimental data: patent US7759486B2, “2,4,5-Trisubstituted pyrimidine compounds” (GlaxoSmithKline LLC, priority 2000, dated 2010)

biological target: T1, CSBP/p38 (Homo sapiens, UniProt Q16539); test: CSBP/p38 Kinase Assay (32P transfer from ATP to EGFR-derived T669 peptide); format: biochemical; conditions: yeast-expressed, activated and purified p38, 0.17 mM ATP, 25 min at 37° C., read-out: IC50, positive inhibitory activity in this binding assay
T1 construct: made in house; host or cells: yeast
Method: Assay: Test compound concentrations were prepared at 10× concentrations and LPS prepared at […] (final conc. of 50 ng/ml LPS) and added in 50 uL volumes to 1.5 mL eppendorf tubes. Heparinized human whole blood was obtained from healthy volunteers and was dispensed into eppendorf tubes containing compounds and LPS in 0.4 mL volumes and the tubes incubated at 37 C. Following a 4 hour incubation, the tubes were centrifuged at 5000 rpm for 5 minutes in a TOMY microfuge, plasma was withdrawn and frozen at −80 C. Cytokine measurement: IL-1 and/or TNF were quantified using a standardized ELISA technology. An in-house ELISA kit was used to detect human IL-1 and TNF. Concentrations of IL-1 or TNF were determined from standard curves of the appropriate cytokine and IC50 values for test compound (concentration that inhibited 50% of LPS-stimulated cytokine production) were calculated by linear regression analysis. CSBP/p38 Kinase Assay:
This assay measures the CSBP/p38-catalyzed transfer of ^32P from […] to threonine residue in an epidermal growth factor receptor (EGFR)-derived peptide (T669) with the following sequence: […] (SEQ ID No. 1) (residues 661-681). […]
Reactions were carried in round bottom 96 well plate (from Corning) in a 30 ml volume. […] Filters were washed with 75 mM phosphoric acids, and incorporated 32P was quantified using beta scintillation counter. […]

T1 sequence (Q16539 whole entry): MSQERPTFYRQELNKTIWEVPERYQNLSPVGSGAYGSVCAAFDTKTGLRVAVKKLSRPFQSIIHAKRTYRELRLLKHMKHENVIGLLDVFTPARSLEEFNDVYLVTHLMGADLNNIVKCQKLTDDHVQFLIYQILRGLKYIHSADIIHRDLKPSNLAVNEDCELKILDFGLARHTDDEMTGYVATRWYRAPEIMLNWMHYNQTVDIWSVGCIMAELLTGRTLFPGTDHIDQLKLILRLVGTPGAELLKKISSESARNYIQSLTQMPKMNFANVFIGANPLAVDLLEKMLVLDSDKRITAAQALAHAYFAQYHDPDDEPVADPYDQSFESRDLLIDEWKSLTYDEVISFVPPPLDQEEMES

Row | SMILES | IC50 [µM]
1 | CSc1nc(Oc2ccccc2)c2ccc(=O)n(-c3ccccc3Cl)c2n1 [Example 111, 8-(2-Chloro-phenyl)-2-methylsulfanyl-4-phenoxy-8H-pyrido[2,3-d]pyrimidin-7-one] | < 10

test system: not given; test: not given; conditions: not given

Row | melting point [°C] | SMILES
2 | 160 to 162 | Cc1cc(F)ccc1-c1nc(OCCCS(C)(=O)=O)nc2c1ccc(=O)n2-c1c(F)cccc1F [Example 128, 8-(2,6-Difluorophenyl)-4-(4-fluoro-2-methylphenyl)-2-(3-methanesulfonylpropoxy)-8H-pyrido[2,3-d]pyrimidin-7-one]
3 | 75 to 79 | CC(=O)NCCOc1nc(-c2ccc(F)cc2C)c2ccc(=O)n(-c3c(F)cccc3F)c2n1 [Example 132, 8-(2,6-Difluorophenyl)-4-(4-fluoro-2-methylphenyl)-2-(2-acetylaminoethoxy)-8H-pyrido[2,3-d]pyrimidin-7-one]
4 | 148 to 151 | Cc1cc(F)ccc1-c1nc(N[C@H]2CC[C@H](O)CC2)nc2c1ccc(=O)n2-c1ccccc1F [Example 151, trans-2-(4-Hydroxycyclohexylamino)-4-(4-fluoro-2-methylphenyl)-8-(2-fluorophenyl)-8H-pyrido[2,3-d]pyrimidin-7-one]
5 | 106 to 119 | Cc1cc(F)ccc1-c1nc(NCCNC(=O)OC(C)(C)C)nc2c1ccc(=O)n2-c1c(F)cccc1F [Example 167]

More lines, now with the values behind:

Row | SMILES | melting point [°C]
6 | Cc1cc(F)ccc1-c1nc(OCCN(C)S(C)(=O)=O)nc2c1ccc(=O)n2-c1c(F)cccc1F [Example 135, 8-(2,6-Difluorophenyl)-4-(4-fluoro-2-methylphenyl)-2-(2-N-methanesulfonyl-N-methylaminoethoxy)-8H-pyrido[2,3-d]pyrimidin-7-one] | 89 to 92
7 | Cc1cc(F)ccc1-c1nc(N[C@H](C)CO)nc2c1ccc(=O)n2-c1c(F)cccc1F [Example 138, (R)-4-(4-fluoro-2-methylphenyl)-8-(2,6-difluorophenyl)-2-[(1-hydroxyprop-2-yl)amino]-8H-pyrido[2,3-d]pyrimidin-7-one] | 90 to 95
8 | CCC(=O)NCCNc1nc(-c2ccc(F)cc2C)c2ccc(=O)n(-c3c(F)cccc3F)c2n1 [Example 165] | 214 to 216
9 | Cc1cc(F)ccc1-c1nc(NCCNC(=O)C(C)(C)C)nc2c1ccc(=O)n2-c1c(F)cccc1F [Example 166] | 111 to 133
10 | Cc1cc(F)ccc1-c1nc(OCC(CO)CO)nc2c1ccc(=O)n2-c1c(F)cccc1F [Example 133, 8-(2,6-Difluorophenyl)-4-(4-fluoro-2-methylphenyl)-2-(3-hydroxy-2-hydroxymethylpropoxy)-8H-pyrido[2,3-d]pyrimidin-7-one] | 77 to 81
